Article PMC7562955 (Nature Communications, 2020)

Molecular target: T1, TLR7 (Homo sapiens, UniProt Q9NYK1)
T1 sequence (Q9NYK1 27-1049): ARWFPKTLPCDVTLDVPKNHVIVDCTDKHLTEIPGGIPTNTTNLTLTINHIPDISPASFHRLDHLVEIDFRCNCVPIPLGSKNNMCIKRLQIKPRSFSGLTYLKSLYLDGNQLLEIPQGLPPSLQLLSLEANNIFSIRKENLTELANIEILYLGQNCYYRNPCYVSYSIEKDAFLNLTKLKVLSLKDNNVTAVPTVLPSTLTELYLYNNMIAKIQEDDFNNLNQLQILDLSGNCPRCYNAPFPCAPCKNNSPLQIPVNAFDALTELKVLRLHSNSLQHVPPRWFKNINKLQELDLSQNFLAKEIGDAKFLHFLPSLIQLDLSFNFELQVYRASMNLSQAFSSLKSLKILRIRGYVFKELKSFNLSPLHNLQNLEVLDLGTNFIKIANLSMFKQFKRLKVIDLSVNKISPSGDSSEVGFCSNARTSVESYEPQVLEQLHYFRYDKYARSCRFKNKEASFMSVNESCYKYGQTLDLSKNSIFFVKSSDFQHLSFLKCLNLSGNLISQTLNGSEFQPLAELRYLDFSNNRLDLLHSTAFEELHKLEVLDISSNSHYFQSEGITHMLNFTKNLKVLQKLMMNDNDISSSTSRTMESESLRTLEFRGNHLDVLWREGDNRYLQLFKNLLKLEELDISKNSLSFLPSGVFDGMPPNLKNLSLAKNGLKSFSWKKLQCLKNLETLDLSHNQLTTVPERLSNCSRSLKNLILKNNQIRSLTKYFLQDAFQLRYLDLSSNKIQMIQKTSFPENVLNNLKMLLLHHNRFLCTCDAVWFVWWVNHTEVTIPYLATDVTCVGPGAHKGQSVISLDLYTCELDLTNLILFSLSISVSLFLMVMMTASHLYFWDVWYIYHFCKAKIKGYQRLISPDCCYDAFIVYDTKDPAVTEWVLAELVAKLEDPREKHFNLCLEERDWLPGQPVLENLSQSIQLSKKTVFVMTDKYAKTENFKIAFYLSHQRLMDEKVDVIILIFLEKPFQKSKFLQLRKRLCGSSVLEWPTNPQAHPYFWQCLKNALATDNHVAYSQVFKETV
Assay: Dose-response relationship between antagonist and R848, human TLR7 reporter gene assay
Type: cell-based
Parameters: host or cells: HEK293 (TLR7/NF-κB/SEAPorter)
Experimental: Compounds were dissolved in dimethyl sulfoxide. Human TLR7 reporter cell line (Novus Biological) were seeded in 96-well microtiter plate (AGC techno glass) at 5 × 10^4 cells/well in DMEM (GIBCO) with 10% fetal bovine serum (GIBCO), and 10 μg ml^−1 Blastcidin S HCl (GIBCO) and incubated at 37 °C in 5% CO2. The plates were incubated over-night and then addition with various concentrations of compound. After 30 min, R848 (human TLR7/8 ligand) that was diluted with the medium was added, wherein final concentration was adjusted to 0.01, 0.03, 0.1, 0.3, 1, 3, 10, 30, 100, 300 and 1000 μM. The plates were then incubated an additional 20 ± 1 h at 37 °C in 5% CO2, and then the SEAP activity was measured as activation of human TLR7. The SEAP activity was evaluated as follows: pNPP (Invitrogen) was added to the incubated sample (50 μl/well); after 15 min, 4 mol l^−1 sodium hydroxide solution (nacalai tesque) was added thereto (50 μl/well) to quench the reaction; and the absorbance of each sample was measured at 405 nm with microplate reader SpectraMax M4 (Molecular Devices).

In the case of `CCOc1nc(N)c2nc(-c3cncc(F)c3)n(Cc3ccc(CN4C[C@@H]5C[C@H]4CN5C)cc3)c2n1` [Cpd-6], the “mode of action against R848” value was “acted as antagonists”, the TLR7 reporter signal (Cpd-6 0.001 µM, log10[R848 (µM)] 0) was 12.4492 and the TLR7 reporter signal (Cpd-6 0.001 µM, log10[R848 (µM)] 0.477121) was 42.5203. It also gave a TLR7 reporter signal (Cpd-6 0.001 µM, log10[R848 (µM)] 1) of 87.7267, a TLR7 reporter signal (Cpd-6 0.001 µM, log10[R848 (µM)] 1.47712) of 99.7073 and a TLR7 reporter signal (Cpd-6 0.001 µM, log10[R848 (µM)] 2) of 100.849. The TLR7 reporter signal (Cpd-6 0.001 µM, log10[R848 (µM)] 2.47712) was 102.716, the TLR7 reporter signal (Cpd-6 0.001 µM, log10[R848 (µM)] 3) was 99.4752 and the TLR7 reporter signal (Cpd-6 0.001 µM, log10[R848 (µM)] -0.522879) was 1.192. It also gave a TLR7 reporter signal (Cpd-6 0.001 µM, log10[R848 (µM)] -1) of 0.7791, a TLR7 reporter signal (Cpd-6 0.001 µM, log10[R848 (µM)] -1.52288) of 0.2957 and a TLR7 reporter signal (Cpd-6 0.001 µM, log10[R848 (µM)] -2) of -0.1404. It also gave a TLR7 reporter signal (Cpd-6 0.003 µM, log10[R848 (µM)] 0) of 9.923, a TLR7 reporter signal (Cpd-6 0.003 µM, log10[R848 (µM)] 0.477121) of 37.8265 and a TLR7 reporter signal (Cpd-6 0.003 µM, log10[R848 (µM)] 1) of 84.946. The TLR7 reporter signal (Cpd-6 0.003 µM, log10[R848 (µM)] 1.47712) was 98.5645, the TLR7 reporter signal (Cpd-6 0.003 µM, log10[R848 (µM)] 2) was 102.64 and the TLR7 reporter signal (Cpd-6 0.003 µM, log10[R848 (µM)] 2.47712) was 101.614. The TLR7 reporter signal (Cpd-6 0.003 µM, log10[R848 (µM)] 3) was 100.614, the TLR7 reporter signal (Cpd-6 0.003 µM, log10[R848 (µM)] -0.522879) was 0.6697 and the TLR7 reporter signal (Cpd-6 0.003 µM, log10[R848 (µM)] -1) was 0.7155. The TLR7 reporter signal (Cpd-6 0.003 µM, log10[R848 (µM)] -1.52288) was 0.0547, the TLR7 reporter signal (Cpd-6 0.003 µM, log10[R848 (µM)] -2) was -0.2513 and the TLR7 reporter signal (Cpd-6 0.01 µM, log10[R848 (µM)] -2) was -0.4139. It also gave a TLR7 reporter signal (Cpd-6 0.1 μM, log10[R848 (µM)] 0) of 1.818, a TLR7 reporter signal (Cpd-6 0.1 μM, log10[R848 (µM)] 0.477121) of 11.9813 and a TLR7 reporter signal (Cpd-6 0.1 μM, log10[R848 (µM)] 1) of 58.4894. For the same molecule, the TLR7 reporter signal (Cpd-6 0.1 μM, log10[R848 (µM)] 1.47712) was 91.4766, the TLR7 reporter signal (Cpd-6 0.1 μM, log10[R848 (µM)] 2) was 100.668 and the TLR7 reporter signal (Cpd-6 0.1 μM, log10[R848 (µM)] 2.47712) was 102.716. The TLR7 reporter signal (Cpd-6 0.1 μM, log10[R848 (µM)] 3) was 98.9371, the TLR7 reporter signal (Cpd-6 0.1 μM, log10[R848 (µM)] -0.522879) was 0.03031 and the TLR7 reporter signal (Cpd-6 0.1 μM, log10[R848 (µM)] -1) was 0.4916. For the same molecule, the TLR7 reporter signal (Cpd-6 0.1 μM, log10[R848 (µM)] -1.52288) was 0.6438, the TLR7 reporter signal (Cpd-6 0.1 μM, log10[R848 (µM)] -2) was -0.1471 and the TLR7 reporter signal (Cpd-6 0.3 μM, log10[R848 (µM)] 0) was 0.5455. It also gave a TLR7 reporter signal (Cpd-6 0.3 μM, log10[R848 (µM)] 0.477121) of 4.006, a TLR7 reporter signal (Cpd-6 0.3 μM, log10[R848 (µM)] 1) of 31.2508 and a TLR7 reporter signal (Cpd-6 0.3 μM, log10[R848 (µM)] 1.47712) of 73.4318. For the same molecule, the TLR7 reporter signal (Cpd-6 0.3 μM, log10[R848 (µM)] 2) was 95.1399, the TLR7 reporter signal (Cpd-6 0.3 μM, log10[R848 (µM)] 2.47712) was 101.486 and the TLR7 reporter signal (Cpd-6 0.3 μM, log10[R848 (µM)] 3) was 99.1034. The TLR7 reporter signal (Cpd-6 0.3 μM, log10[R848 (µM)] -0.522879) was -0.01626, the TLR7 reporter signal (Cpd-6 0.3 μM, log10[R848 (µM)] -1) was 0.3371 and the TLR7 reporter signal (Cpd-6 0.3 μM, log10[R848 (µM)] -1.52288) was 0.2617. For the same molecule, the TLR7 reporter signal (Cpd-6 0.3 μM, log10[R848 (µM)] -2) was -0.3984, the TLR7 reporter signal (Cpd-6 1 μM, log10[R848 (µM)] 0) was 0.1648 and the TLR7 reporter signal (Cpd-6 1 μM, log10[R848 (µM)] 0.477121) was 0.6756. It also gave a TLR7 reporter signal (Cpd-6 1 μM, log10[R848 (µM)] 1) of 11.4786 and a TLR7 reporter signal (Cpd-6 1 μM, log10[R848 (µM)] 1.47712) of 45.6507.
